Laboratory results taken from publication PMC3692405, “Disease-associated mutations in CNGB3 promote cytotoxicity in photoreceptor-derived cells” (Molecular Vision, 2013).
Read-outs that look alike come from different tables or passages of the source.

Legend:
[1] = target: T1, CNGA3 plus CNGB3-F525N channels (Homo sapiens, UniProt Q16281+Q9NQW8, F525N); test: Inside-out patch-clamp recording of channels expressed in Xenopus oocytes (CNGB3 F525N); format: biochemical
T1 construct: expressed in transfected cells; host or cells: Xenopus laevis oocytes injected with cRNA transcribed from pGEMHE constructs
T1 sequence (Q16281 1-694): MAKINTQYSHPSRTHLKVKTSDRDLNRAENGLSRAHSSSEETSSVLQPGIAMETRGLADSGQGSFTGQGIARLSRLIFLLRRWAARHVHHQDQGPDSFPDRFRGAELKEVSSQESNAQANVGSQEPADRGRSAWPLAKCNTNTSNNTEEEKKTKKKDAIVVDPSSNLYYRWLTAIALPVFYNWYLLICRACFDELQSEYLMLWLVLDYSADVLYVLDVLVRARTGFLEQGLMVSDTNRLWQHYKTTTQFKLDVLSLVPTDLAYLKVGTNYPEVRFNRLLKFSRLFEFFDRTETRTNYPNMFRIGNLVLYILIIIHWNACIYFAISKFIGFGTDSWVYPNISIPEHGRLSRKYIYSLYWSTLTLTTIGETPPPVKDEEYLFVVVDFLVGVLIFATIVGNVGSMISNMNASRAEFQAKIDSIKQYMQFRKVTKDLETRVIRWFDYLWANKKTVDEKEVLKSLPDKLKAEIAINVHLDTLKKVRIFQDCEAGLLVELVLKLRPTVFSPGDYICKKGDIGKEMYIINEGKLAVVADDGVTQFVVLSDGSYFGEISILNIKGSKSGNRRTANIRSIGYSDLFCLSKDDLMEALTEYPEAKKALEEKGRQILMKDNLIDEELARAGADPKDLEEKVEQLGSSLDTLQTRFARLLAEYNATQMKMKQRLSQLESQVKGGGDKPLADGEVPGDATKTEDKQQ
T1 sequence (Q9NQW8 1-809 F525N): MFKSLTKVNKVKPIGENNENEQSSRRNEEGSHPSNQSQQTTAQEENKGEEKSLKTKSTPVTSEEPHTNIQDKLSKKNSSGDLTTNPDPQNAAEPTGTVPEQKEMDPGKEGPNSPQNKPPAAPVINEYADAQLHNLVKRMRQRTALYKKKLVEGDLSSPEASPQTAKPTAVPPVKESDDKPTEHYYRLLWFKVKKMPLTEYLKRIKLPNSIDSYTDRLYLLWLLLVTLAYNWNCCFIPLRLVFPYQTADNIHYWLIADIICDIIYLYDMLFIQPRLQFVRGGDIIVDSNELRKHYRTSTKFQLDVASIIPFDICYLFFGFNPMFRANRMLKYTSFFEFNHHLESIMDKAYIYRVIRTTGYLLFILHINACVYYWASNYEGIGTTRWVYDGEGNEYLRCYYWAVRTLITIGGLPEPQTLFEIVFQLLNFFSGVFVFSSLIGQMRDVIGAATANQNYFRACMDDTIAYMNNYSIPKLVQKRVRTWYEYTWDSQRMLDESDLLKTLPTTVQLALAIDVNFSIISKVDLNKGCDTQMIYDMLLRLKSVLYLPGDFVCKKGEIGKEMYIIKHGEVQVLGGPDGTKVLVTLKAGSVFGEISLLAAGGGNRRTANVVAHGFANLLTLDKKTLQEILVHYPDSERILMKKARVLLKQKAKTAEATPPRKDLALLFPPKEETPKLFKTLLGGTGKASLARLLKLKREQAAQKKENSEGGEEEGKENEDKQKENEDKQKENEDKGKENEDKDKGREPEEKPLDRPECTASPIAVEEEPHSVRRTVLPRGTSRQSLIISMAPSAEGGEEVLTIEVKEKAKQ
Procedure: (§1) For heterologous expression in Xenopus laevis oocytes, identical amounts of cDNA were linearized using SphI or NheI, and capped cRNA was transcribed in vitro using the T-7 RNA polymerase mMESSAGE mMACHINE® kit (Ambion, Austin, TX). cRNA concentrations and relative amounts were determined by denaturing gel electrophoresis and KODAK 1D image analysis software (Rochester, NY), as well as by spectrophotometry. […] Oocytes were incubated in ND96 (96 mM NaCl, 2 mM KCl, 1.8 mM CaCl2, 1 mM MgCl2, and 5 mM HEPES, pH 7.6, supplemented with 10 μg/ml gentamycin).
(§2) Two to seven days after microinjection of cRNA, patch-clamp experiments were performed using the inside-out configuration with an Axopatch 200B amplifier (Axon Instruments, Foster City, CA). Recordings were made at 20–23 °C. Data were acquired using Pulse software (HEKA Elektronik, Lambrecht, Germany). Current traces were elicited by voltage steps from a holding potential of 0 mV to +80 mV, then to −80 mV and back to 0 mV. Initial pipette resistances were 0.4–0.8 megaohms. Intracellular and extracellular solutions contained 130 mM NaCl, 0.2 mM EDTA, and 3 mM HEPES (pH 7.2). Intracellular solutions were exchanged using an RSC-160 rapid solution changer (Molecular Kinetics, Indianapolis, IN). Currents in the absence of cyclic nucleotides were subtracted. For channel activation by CPT-cGMP or CPT-cAMP, dose–response data were fitted with the Hill equation, I/Imax=([cNMP]^h/(K1/2^h + [cNMP]^h)), where I is the current amplitude at +80 mV, Imax is the maximum current elicited by saturating concentration of ligand, [cNMP] is the ligand concentration, K1/2 is the apparent ligand affinity, and h is the Hill slope. We measured sensitivity to block by L-cis-diltiazem (RBI, Natick, MA) applied to the intracellular face of the patch in the presence of 0.1 μM CPT-cGMP. Data were fit with a modified Hill equation in the form I blocker/I=(K1/2^h/(K1/2^h + [blocker]^h)). Data were analyzed using Igor (Wavemetrics, Lake Oswego, OR), SigmaPlot, and SigmaStat (Systat Software Inc., San Jose, CA). All values are reported as the mean±standard error of the mean of n experiments unless otherwise indicated. Statistical significance was determined using a Student t test or Mann–Whitney rank sum test, and a p value of <0.05 was considered significant.

[2] = target: T2, CNGA3 plus CNGB3 T383fsX channels (Homo sapiens, UniProt Q16281); test: Inside-out patch-clamp recording of channels expressed in Xenopus oocytes (CNGB3 T383fsX); format: biochemical
T2 construct: expressed in transfected cells; host or cells: Xenopus laevis oocytes injected with cRNA transcribed from pGEMHE constructs
T2 sequence (Q16281 1-694): T1 sequence (Q16281 1-694)
Procedure: as §1, §2

[3] = representative patch, Figure 1B
[4] = representative patch, Figure 5A

SMILES	Hill slope h, CPT-cGMP activation ([1]; +80 mV, Hill fit, mean±SEM)	EC50 ([1]; +80 mV, Hill fit, mean±SEM, read-out: apparent CPT-cGMP affinity K1/2, CPT-cGMP (channel activation))	maximum patch current density (Imax/area) ([1]; +80 mV, saturating CPT-cGMP (4 μM), mean±SEM, n=15)	Hill slope h, CPT-cGMP, representative dose-response [1, 3]	EC50 ([1]; representative patch, Figure 1B, read-out: K1/2,CPT-cGMP, representative dose-response)	Hill slope h, CPT-cGMP activation ([2]; +80 mV, Hill fit, mean±SEM, n=8)	EC50 ([2]; +80 mV, Hill fit, mean±SEM, n=8, read-out: apparent CPT-cGMP affinity K1/2, CPT-cGMP (channel activation))	maximum patch current density (Imax/area) ([2]; +80 mV, saturating CPT-cGMP (4 μM), mean±SEM, n=9)	Hill slope h, CPT-cGMP, representative dose-response [2, 3]	EC50 ([2]; representative patch, Figure 1B, read-out: K1/2, cGMP, representative dose-response for CPT-cGMP activation)	relative agonist efficacy Imax, CPT-cAMP/Imax, CPT-cGMP ([1]; +80 mV, CPT-cAMP 100 μM vs CPT-cGMP 4 μM, mean±SEM, n=15)	Hill slope h, CPT-cAMP activation ([1]; Hill fit, mean±SEM, n=15)	EC50 ([1]; Hill fit, mean±SEM, n=15, read-out: apparent affinity K1/2, CPT-cAMP (channel activation))	Hill slope h, CPT-cAMP, representative dose-response [1, 4]	EC50 ([1]; representative patch, Figure 5A, read-out: K1/2,CPT-cAMP, representative dose-response)	relative agonist efficacy Imax, CPT-cAMP/Imax, CPT-cGMP ([2]; +80 mV, CPT-cAMP 100 μM vs CPT-cGMP 4 μM, mean±SEM, n=8)	Hill slope h, CPT-cAMP activation ([2]; Hill fit, mean±SEM, n=9)	EC50 ([2]; Hill fit, mean±SEM, n=9, read-out: apparent affinity K1/2, CPT-cAMP (channel activation))	Hill slope h, CPT-cAMP, representative dose-response [2, 4]	EC50 ([2]; representative patch, Figure 5A, read-out: K1/2, cAMP, representative dose-response for CPT-cAMP activation)
Nc1nc2c(nc(Sc3ccc(Cl)cc3)n2[C@@H]2O[C@@H]3COP(=O)(O)O[C@H]3[C@H]2O)c(=O)[nH]1 [CPT-cGMP, 8-(4-chlorophenylthio) guanosine 3′,5′-cyclic monophosphate]	1.8±0.04	0.0868 ± 0.0106 µM	80.3±18.6 pA/μm^2	1.7	0.079 µM	2.2±0.1	0.105 ± 0.0073 µM	86.6±17.0 pA/μm^2	1.9	0.111 µM	–	–	–	–	–	–	–	–	–	–
Nc1ncnc2c1nc(Sc1ccc(Cl)cc1)n2[C@@H]1O[C@@H]2COP(=O)(O)O[C@H]2[C@H]1O [CPT-cAMP, CPT-adenosine 3′,5′-cyclic monophosphate]	–	–	–	–	–	–	–	–	–	–	0.49±0.04	1.4±0.08	13.8 ± 1.4 µM	1.0	10.8 µM	0.07±0.01	1.8±0.1	29.8 ± 1.9 µM	1.6	27.9 µM
